Reference: patent publication US8975406B2, “Compound useful for the treatment of degenerative and inflammatory diseases” (Galapagos N.V., priority 2011, dated 2015)

Key:
Recombinant human JAK2 = biological target: T1, Recombinant human JAK2 (Homo sapiens, UniProt O60674); test: JAK2 Ulight-JAK1 peptide assay; format: biochemical; conditions: Ulight-JAK1(tyr1023) peptide, 7.5 μM ATP
T1 construct: catalytic domain (amino acids 808-1132; catalog number PV4210); GST; purchased Invitrogen PV4210
Procedure: Recombinant human JAK2 (catalytic domain, amino acids […]; catalog number PV4210) was purchased from Invitrogen. 0.0125 mU of JAK2 was incubated with 25 nM Ulight-JAK1(tyr1023) peptide (Perkin Elmer catalog number TRF0121) in kinase reaction buffer (25 mM HEPES pH7.0, 0.01% Triton X-100, 7.5 mM MgCl2, 2 mM DTT, 7.5 μM ATP) with or without 4 μL containing test compound or vehicle (DMSO, 1% final concentration), in a total volume of 20 μL, in a white 384 Opti plate (Perkin Elmer, catalog number 6007290). After 60 min at room temperature, reactions were stopped by adding 20 μL/well of detection mixture (1× detection buffer (Perkin Elmer, catalog number CR97-100C), 0.5 nM Europium-anti-phosphotyrosine (PT66) (Perkin Elmer, catalog number AD0068), 10 mM EDTA). Readout is performed using the Envision with excitation at 320 nm and measuring emission at 615 nm (Perkin Elmer). Kinase activity was calculated by subtracting relative fluorescence units (RFU) obtained in the presence of a positive control inhibitor (10 μM staurosporine) from RFU obtained in the presence of vehicle. The ability of a test compound to inhibit this activity was determined as: Percentage inhibition=((RFU determined for sample with test compound present−RFU determined for sample with positive control inhibitor)divided by(RFU determined in the presence of vehicle−RFU determined for sample with positive control inhibitor))*100.
Dose dilution series were prepared for each compound enabling the testing of dose-response effects in the JAK2 assay and the calculation of the IC50 for the compound. Each compound is routinely tested at concentration of 20 μM followed by a ⅕ serial dilution, 10 points in a final concentration of 1% DMSO. When potency of compound series increases, more dilutions are prepared and/or the top concentration are lowered (e.g. 5 μM, 1 μM). The data are expressed as the average IC50 from the assays±standard error of the mean.

[1] = biological target: T2, Recombinant human TYK2 catalytic domain (Homo sapiens, UniProt P29597); test: TYK2 inhibition assay; format: biochemical; conditions: polyGT substrate, 33P-gamma-ATP filter assay, 0.1 μM ATP
T2 construct: catalytic domain (amino acids 871-1187; catalog number 08-147); GST; purchased Carna Biosciences 08-147
T2 sequence (P29597 871-1187): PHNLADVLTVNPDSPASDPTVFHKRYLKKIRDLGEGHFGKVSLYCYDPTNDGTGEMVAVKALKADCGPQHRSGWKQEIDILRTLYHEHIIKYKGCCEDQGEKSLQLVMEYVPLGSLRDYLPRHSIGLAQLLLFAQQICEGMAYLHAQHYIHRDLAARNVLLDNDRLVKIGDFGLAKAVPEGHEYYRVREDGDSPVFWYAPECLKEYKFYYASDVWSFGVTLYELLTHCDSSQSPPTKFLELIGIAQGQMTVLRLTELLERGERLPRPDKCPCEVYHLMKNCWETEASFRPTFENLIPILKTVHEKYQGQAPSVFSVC
Procedure: Recombinant human TYK2 catalytic domain (amino acids 871-1187; catalog number 08-147) was purchased from Carna biosciences. 4 ng of TYK2 was incubated with 12.5 μg polyGT substrate (Sigma catalog number P0275) in kinase reaction buffer (25 mM Hepes pH 7.2, 50 mM NaCl, 0.5 mM EDTA, 1 mM DTT, 5 mM MnCl2, 10 mM MgCl2, 0.1% Brij-35, 0.1 μM non-radioactive ATP, 0.125 μCi ^33P-gamma-ATP (Perkin Elmer, catalog number NEG602K001MC) final concentrations) with or without 5 μL containing test compound or vehicle (DMSO, 1% final concentration), in a total volume of 25 μL, in a polypropylene 96-well plate (Greiner, V-bottom). After 90 min at 30° C., reactions were stopped by adding 25 μL/well of 150 mM phosphoric acid. All of the terminated kinase reaction was transferred to prewashed (75 mM phosphoric acid) 96 well filter plates (Perkin Elmer catalog number 6005177) using a cell harvester (Perkin Elmer). Plates were washed 6 times with 300 μL per well of a 75 mM phosphoric acid solution and the bottom of the plates was sealed. 40 μL/well of Microscint-20 was added, the top of the plates was sealed and readout was performed using the Topcount (Perkin Elmer). Kinase activity was calculated by subtracting counts per min (cpm) obtained in the presence of a positive control inhibitor (10 μM staurosporine) from cpm obtained in the presence of vehicle. The ability of a test compound to inhibit this activity was determined as: Percentage inhibition=((cpm determined for sample with test compound present−cpm determined for sample with positive control inhibitor)divided by(cpm determined in the presence of vehicle−cpm determined for sample with positive control inhibitor))*100.
Dose dilution series were prepared for the compounds enabling the testing of dose-response effects in the TYK2 assay and the calculation of the IC50 for each compound. Each compound was routinely tested at concentration of 20 μM followed by a ⅓ serial dilution, 8 points (20 μM-6.67 μM-2.22 μM-740 nM-247 nM-82 nM-27 nM-9 nM) in a final concentration of 1% DMSO. When potency of compound series increased, more dilutions were prepared and/or the top concentration was lowered (e.g. 5 μM, 1 μM).

T1 sequence (O60674 808-1132): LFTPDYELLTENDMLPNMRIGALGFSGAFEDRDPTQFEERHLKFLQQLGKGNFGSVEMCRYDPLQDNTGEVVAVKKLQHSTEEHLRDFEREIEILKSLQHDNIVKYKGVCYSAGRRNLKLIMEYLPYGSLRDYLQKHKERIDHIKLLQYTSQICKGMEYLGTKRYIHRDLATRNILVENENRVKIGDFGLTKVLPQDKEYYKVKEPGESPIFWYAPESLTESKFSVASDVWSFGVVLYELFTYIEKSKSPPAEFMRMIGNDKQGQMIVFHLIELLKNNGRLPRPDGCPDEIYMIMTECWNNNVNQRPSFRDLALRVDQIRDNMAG

| SMILES | IC50 (Recombinant human JAK2) [nM] | IC50 [1] [nM] |
| --- | --- | --- |
| CC(=O)Nc1cc2c(-c3cnc(CN4CCN(S(C)(=O)=O)CC4)c(F)c3)cccn2n1 [Compound 26, N-(4-(5-fluoro-6-((4-(methylsulfonyl)piperazin-1-yl)methyl)pyridin-3-yl)pyrazolo[1,5-a]pyridin-2-yl)acetamide] | 101 to 500 | > 1000 |
| CC(=O)Nc1cc2c(-c3ccc(CN4CCS(=O)(=O)CC4)c(F)c3)cccn2n1 [Compound 27, N-{4-[4-(1,1-Dioxo-thiomorpholin-4-ylmethyl)-3-fluoro-phenyl]-pyrazolo[1,5-a]pyridin-2-yl}-acetamide] | 0.01 to 100 | 0.01 to 100 |
| CC(=O)Nc1cc2c(-c3ccc(CN4CCN(CC(F)(F)F)CC4)c(F)c3)cccn2n1 [Compound 28, N-(4-(3-fluoro-4-((4-(2,2,2-trifluoroethyl)piperazin-1-yl)methyl)phenyl)pyrazolo[1,5-a]pyridin-2-yl)acetamide] | 0.01 to 100 | 101 to 500 |
| CC(=O)Nc1cc2c(-c3ccc(CN4CCC(S(C)(=O)=O)CC4)c(F)c3)cccn2n1 [Compound 29, N-(4-(3-fluoro-4((4-(methylsulfonyl)piperidin-1-yl)methyl)phenyl)pyrazolo[1,5-a]pyridin-2-yl)acetamide] | 0.01 to 100 | 0.01 to 100 |
| CC(=O)Nc1cc2c(-c3ccc(CC(=O)N4CC(F)(F)C4)cc3)cccn2n1 [Compound 34, N-(4-(4-(2-(3,3-difluoroazetidin-1-yl)-2-oxoethyl)phenyl)pyrazolo[1,5-a]pyridin-2-yl)acetamide] | 0.01 to 100 | 0.01 to 100 |
| CC(=O)Nc1cc2c(-c3ccc(CC(=O)N4CCCCC4)cc3)cccn2n1 [Compound 35, N-(4-(4-(2-oxo-2-(piperidin-1-yl)ethyl)phenyl)pyrazolo[1,5-a]pyridin-2-yl)acetamide] | 0.01 to 100 | 0.01 to 100 |
| CC(=O)Nc1cc2c(-c3ccc(CC(=O)N4CCOCC4)cc3)cccn2n1 [Compound 36, N-(4-(4-(2-morpholino-2-oxoethyl)phenyl)pyrazolo[1,5-a]pyridin-2-yl)acetamide] | 0.01 to 100 | 0.01 to 100 |
| CC(=O)Nc1cc2c(-c3ccc(CC(=O)N4COCC4(C)C)cc3)cccn2n1 [Compound 38, N-(4-(4-(2-(4,4-dimethyloxazolidin-3-yl)-2-oxoethyl)phenyl)pyrazolo[1,5-a]pyridin-2-yl)acetamide] | 0.01 to 100 | 101 to 500 |
| CC(c1ccc(-c2cccn3nc(NC(=O)C4CC4)cc23)cc1)N1CCN(S(C)(=O)=O)CC1 (stereo not drawn) [Compound 43, N-(4-(4-(1-(4-(methylsulfonyl)piperazin-1-yl)ethyl)phenyl)pyrazolo[1,5-a]pyridin-2-yl)cyclopropanecarboxamide] | 0.01 to 100 | 0.01 to 100 |
| C[C@@H]1CN(S(C)(=O)=O)CCN1Cc1ccc(-c2cccn3nc(NC(=O)C4CC4)cc23)cc1 [Compound 44, (R)-N-(4-(4-((2-methyl-4-(methylsulfonyl)piperazin-1-yl)methyl)phenyl)pyrazolo[1,5-a]pyridin-2-yl)cyclopropanecarboxamide] | 0.01 to 100 | 0.01 to 100 |
| CC(=O)Nc1cc2c(-c3ccc(C(C)N4CCN(S(C)(=O)=O)CC4)cc3)cccn2n1 (stereo not drawn) [Compound 45, N-(4-(4-(1-(4-(methylsulfonyl)piperazin-1-yl)ethyl)phenyl)pyrazolo[1,5-a]pyridin-2-yl)acetamide] | 0.01 to 100 | 0.01 to 100 |
| C[C@H](c1ccc(-c2cccn3nc(NC(=O)C4CC4)cc23)cc1)N1CCN(S(C)(=O)=O)CC1 [Compound 46, (R)-N-(4-(4-(1-(4-(methylsulfonyl)piperazin-1-yl)ethyl)phenyl)pyrazolo[1,5-a]pyridin-2-yl)cyclopropanecarboxamide] | 0.01 to 100 | 0.01 to 100 |
| C[C@@H](c1ccc(-c2cccn3nc(NC(=O)C4CC4)cc23)cc1)N1CCN(S(C)(=O)=O)CC1 [Compound 47, (S)-N-(4-(4-(1-(4-(methylsulfonyl)piperazin-1-yl)ethyl)phenyl)pyrazolo[1,5-a]pyridin-2-yl)cyclopropanecarboxamide] | 0.01 to 100 | 0.01 to 100 |
| O=C(Nc1cc2c(-c3ccc(CN4CCCCC45COC5)cc3)cccn2n1)C1CC1 [Compound 48, N-(4-(4-(2-oxa-5-azaspiro[3.5]nonan-5-ylmethyl)phenyl)pyrazolo[1,5-a]pyridin-2-yl)cyclopropanecarboxamide] | 101 to 500 | 101 to 500 |
| CS(=O)(=O)N1CC[C@@H](Oc2ccc(-c3cccn4nc(NC(=O)C5CC5)cc34)cc2)C1 [Compound 49, (R)-N-(4-(4-(1-(methylsulfonyl)pyrrolidin-3-yloxy)phenyl)pyrazolo[1,5-a]pyridin-2-yl)cyclopropanecarboxamide] | > 1000 | 0.01 to 100 |
